{"source": "paper PMC8333425", "about": "“Discovery of a dual Ras and ARF6 inhibitor from a GPCR endocytosis screen” (Nature Communications, 2021)", "key": {"[1]": {"test_system": "β-arrestin1 recruitment to B2R", "assay": "BRET recruitment of β-arrestin1 to B2R", "assay_type": "cell-based, human", "protocol": "(§1) HEK293SL cells were seeded at a density of 7.5 × 10^5 cells per 100-mm dish and 24 h later, transiently transfected as such. For receptor internalization experiments, cells were transfected with 0.12 μg AT1R-RlucII, B2R-RlucII, or β2AR-RlucII and 0.48 μg of either rGFP-CAAX (to assess removal from the PM) or rGFP-FYVE (to assess accumulation in the endosomes). For β-arrestin recruitment assays, cells were transfected with 0.48 μg of receptor-YFP along with 0.12 μg of β-arrestin-RlucII. For β-arrestin/AP-2 binding experiments, cells were transfected with 1 μg Flag-AT1R, 1 μg β2-Adaptin-YFP, and 0.12 μg β-arrestin2-RlucII. For G protein activation, cells were transfected with 3 μg of sp-Flag-AT1R along with either 4.5 μg of the Gαq-polycistronic BRET sensor or 0.24 μg of the Gαi3-RlucII and 0.6 μg of GFP10-Gγ2 and Gβ1 sensors or 0.12 μg PKN-RBD-RlucII and 0.48 μg of rGFP-CAAX. For PKC activation, cells were transfected with 3 μg of sp-Flag-AT1R and 0.18 μg of the PKC sensor. For GTPase activation experiments, cells were transfected with 1 μg Flag-AT1R, 0.48 μg of rGFP-CAAX, and either 0.12 μg of GGA3-PBD-RlucII, PAK-CRIB-RlucII or Raf-RBD-RlucII. For biosensor validation experiments, cells were additionally transfected with 500 ng Flag-K-Ras-WT, Flag-K-Ras-G12V, Flag-K-Ras-SOS-CAAX, HA-ARF6-WT, HA-ARF6-T27N, Myc-Rac1-WT, Myc-Rac1-Q61L or Myc-Rac1-T17N. For PI3K/Akt activation experiments, cells were transfected with 0.48 μg of rGFP-CAAX and 0.12 μg of Akt (PH)-RlucII. After 18 h of transfection, the media was replaced and cells were divided for subsequent experiments. Cells were detached and seeded onto poly-L-ornithine-coated 96-well flat white bottom plates (BrandTech Scientific) at a density of 2.5 × 10^4 cells per well in media. The next day, cells were washed once with Tyrode’s buffer (140 mM NaCl, 2.7 mM KCl, 1 mM CaCl2, 12 mM NaHCO3, 5.6 mM D-glucose, 0.5 mM MgCl2, 0.37 mM NaH2PO4, 25 mM HEPES, pH 7.4) and left in Tyrode’s buffer. For kinetics of β-arrestin recruitment or β-arrestin binding to receptor and AP-2 experiments, cells were serum starved for 30 min, pretreated with 21 (50 µM) or Barbadin (100 µM) for 30 min, stimulated with 100 nM AngII or 1 µM BK and BRET signals were monitored at indicated times using a Victor X Light plate reader (PerkinElmer). Coelenterazine H (final concentration of 5 µM) was added 3–5 min prior to BRET measurements. Filter set was 460/80 nm and 535/30 nm for detecting the RlucII Renilla luciferase (donor) and YFP (acceptor) light emissions, respectively. The BRET ratio was determined by calculating the ratio of the light emitted by YFP over the light emitted by the RlucII. For G protein activation, cells were serum starved, pretreated with compounds for 30 min, stimulated with 100 nM AngII for 2 min (Gαq, Gαi3, and Rho sensors) or 5 min (PKC sensor). For the kinetics of GTPase and PI3K/Akt activation, cells were serum starved, pretreated with 21 (50 µM) or Wortmannin (200 nM) for 30 min, stimulated with ligand (100 nM AngII or 100 ng/ml EGF) and BRET signals were monitored at indicated times. For concentration-response curves, cells were serum-starved, pretreated with various concentrations of compounds for 30 min and stimulated with ligand (100 nM AngII, 1 µM BK, 10 µM Isoproterenol (Iso) or 100 ng/ml EGF) in Tyrode’s buffer for 30 min for receptor internalization, 10 min for ARF6, 2 min for Rac and Rho activation and 5 min for Ras activation and PI3K/Akt activation. BRET signals were monitored using a Synergy2 (BioTek) microplate reader and coelenterazine 400a (final concentrations of 5 µM) added 3–5 min prior to BRET measurements. Filter set was 410/80 nm and 515/30 nm for detecting the RlucII Renilla luciferase (donor) and rGFP/GFP10 (acceptor) light emissions, respectively. The BRET ratio was determined by calculating the ratio of the light emitted by rGFP/GFP10 over the light emitted by the RlucII."}, "AT1R": {"test_system": "AT1R", "assay": "BRET recording of AT1R removal from the PM (AT1R-RlucII / rGFP-CAAX)", "assay_type": "cell-based, human", "settings": "for AngII-promoted BRET, AT1R removal from the PM: Comp 21 50 μM, individual experiments", "protocol": "as §1, with “For concentration-response curves, cells were serum-starved, pretreated with various concentrations of compounds for 30 min and stimulated with ligand (100 nM AngII, 1 µM BK, 10 µM Isoproterenol (Iso) or 100 ng/ml EGF) in Tyrode’s buffer for 30 min for receptor internalization, 10 min for ARF6, 2 min for Rac and Rho activation and 5 min for Ras activation and PI3K/Akt activation.” left out, “Filter set was 410/80 nm and 515/30 nm for detecting the RlucII Renilla luciferase (donor) and rGFP/GFP10 (acceptor) light emissions, respectively.” left out"}}, "note": "Where “and” joins values, the source holds several entries; their conditions need not be identical. Identical values can stand only once. Entries after “also recorded” stand apart in the source; their conditions may differ.", "data": [{"smiles": "CC(C)C(=O)N1CCN(c2ccc(NC(=O)c3cc4ccccc4o3)cc2Cl)CC1", "note": "[Compound 21]", "values": [{"measurement": "β-arrestin1 recruitment to B2R at the PM", "setting": "[1]; 50 μM", "result": "did not preclude; also recorded: lack of inhibition"}, {"measurement": "BK-promoted BRET, Barr1", "setting": "[1]; Time 0 min", "result": 0}, {"measurement": "BK-promoted BRET, Barr1", "setting": "[1]; Time 5 min, listed as Comp 21", "result": "0.04767 and 0.09406 and 0.08157"}, {"measurement": "BK-promoted BRET, Barr1", "setting": "[1]; Time 10 min, listed as Comp 21", "result": "0.06518 and 0.1019 and 0.08421"}, {"measurement": "BK-promoted BRET, Barr1", "setting": "[1]; Time 15 min, listed as Comp 21", "result": "0.06934 and 0.1045 and 0.09014"}, {"measurement": "BK-promoted BRET, Barr1", "setting": "[1]; Time 30 min, listed as Comp 21", "result": "0.0673 and 0.09261 and 0.08457"}, {"measurement": "BK-promoted BRET, Barr1", "setting": "[1]; Time 60 min, listed as Comp 21", "result": "0.06921 and 0.07361 and 0.07333"}, {"measurement": "AngII-bound AT1R removal from the PM", "setting": "AT1R; 50 μM", "result": "slowed down and decreased the extent of AngII-bound AT1R removal from the PM"}, {"measurement": "AngII-promoted BRET, AT1R removal from the PM", "setting": "AT1R; time 0 min", "result": 0}, {"measurement": "AngII-promoted BRET, AT1R removal from the PM", "setting": "AT1R; time 5 min", "result": "-0.084 and -0.3663 and -0.1717 and -0.07933"}, {"measurement": "AngII-promoted BRET, AT1R removal from the PM", "setting": "AT1R; time 15 min", "result": "-0.132 and -0.4823 and -0.452 and -0.243"}, {"measurement": "AngII-promoted BRET, AT1R removal from the PM", "setting": "AT1R; time 30 min", "result": "-0.166 and -0.515 and -0.398 and -0.3753"}]}]}
